Assay results taken from publication PMC9090415, “Discovery of small molecule inhibitors of Plasmodium falciparum apicoplast DNA polymerase” (Journal of Enzyme Inhibition and Medicinal Chemistry, 2022).

Target: P. falciparum apicoplast DNA polymerase (Pf-apPOL) (Plasmodium falciparum, UniProt Q8ILY1)
Test: Fluorescence-based high-throughput DNA polymerase assay (molecular beacon), primary screen and dose-response
Assay type: biochemical
Settings: for DNA Pol: 90 min, 10 µM; for IC50: supplemental file 2, sheet IC50 nontoxic compounds, Pf-apPOL
Outline: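 Single-point screening used 10 µM compound with 20 nM polymerase, 20 nM hairpin substrate and 6 µM dNTPs for 90 min at 25 °C. Confirmatory titrations (2.5–80 µM) followed fluorescence at three times, and IC50 was derived from a fit including a cooperativity term n.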

[1] = primary screen value of the 186 hits, unit not given
[2] = DRC-2, 40', concentration 10 (unit not given)
[3] = DRC-2, 40', concentration 20 (unit not given)
[4] = DRC-2, 90', concentration 10 (unit not given)
[5] = DRC-2, 180', concentration 10 (unit not given)
[6] = primary screen value, head "DNA Pol", unit not given

Sequence of P. falciparum apicoplast DNA polymerase (Pf-apPOL) (Q8ILY1 entry or part of it): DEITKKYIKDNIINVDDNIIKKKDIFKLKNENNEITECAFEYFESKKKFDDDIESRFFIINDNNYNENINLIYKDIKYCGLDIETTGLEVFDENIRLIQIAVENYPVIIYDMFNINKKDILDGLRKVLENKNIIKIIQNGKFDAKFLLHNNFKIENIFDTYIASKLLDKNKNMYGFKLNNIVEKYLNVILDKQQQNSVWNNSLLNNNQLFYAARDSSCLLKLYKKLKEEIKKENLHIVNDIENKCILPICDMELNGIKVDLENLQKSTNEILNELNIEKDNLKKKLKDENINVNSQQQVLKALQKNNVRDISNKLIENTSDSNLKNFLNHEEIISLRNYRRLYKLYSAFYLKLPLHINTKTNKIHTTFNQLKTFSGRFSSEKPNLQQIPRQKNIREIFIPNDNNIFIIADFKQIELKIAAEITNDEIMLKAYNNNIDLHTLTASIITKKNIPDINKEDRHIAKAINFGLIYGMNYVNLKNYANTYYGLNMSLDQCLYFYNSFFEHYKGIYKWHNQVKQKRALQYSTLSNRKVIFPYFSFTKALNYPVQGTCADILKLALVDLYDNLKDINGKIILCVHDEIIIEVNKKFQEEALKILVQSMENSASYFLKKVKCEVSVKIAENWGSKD

## COc1ccc(-c2cc(=O)c3cc(O)ccc3o2)cc1OC [KU0193655]
DRC-1, concentration 2.5
  % inhibition Apo pol 10': -0.1967%
DRC-1, concentration 5
  % inhibition Apo pol 10': 8.174%
DRC-1, concentration 10
  % inhibition Apo pol 10': 18.1231%
DRC-1, concentration 20
  % inhibition Apo pol 10': 34.6118%
DRC-1, concentration 40
  % inhibition Apo pol 10': 62.4482%
DRC-1, concentration 80
  % inhibition Apo pol 10': 84.2826%
DRC-1, 90', concentration 2.5
  % inhibition Apol 90': 2.413%
DRC-1, 90', concentration 5
  % inhibition Apol 90': 7.049%
DRC-1, 90', concentration 10
  % inhibition Apol 90': 17.1119%
DRC-1, 90', concentration 20
  % inhibition Apol 90': 31.7706%
DRC-1, 90', concentration 40
  % inhibition Apol 90': 60.6022%
DRC-1, 90', concentration 80
  % inhibition Apol 90': 83.5295%
DRC-1, 180', concentration 2.5
  % inhibition apPOL 180': 2.832%
DRC-1, 180', concentration 5
  % inhibition apPOL 180': 6.576%
DRC-1, 180', concentration 10
  % inhibition apPOL 180': 16.442%
DRC-1, 180', concentration 20
  % inhibition apPOL 180': 31.1115%
DRC-1, 180', concentration 40
  % inhibition apPOL 180': 58.5037%
DRC-1, 180', concentration 80
  % inhibition apPOL 180': 84.0263%
DRC-2, concentration 2.5
  % inhibition Apo pol 5': -0.529%
DRC-2, concentration 5
  % inhibition Apo pol 5': 0.718%
DRC-2, concentration 10
  % inhibition Apo pol 5': 15%
DRC-2, concentration 20
  % inhibition Apo pol 5': 23%
DRC-2, concentration 40
  % inhibition Apo pol 5': 39%
DRC-2, concentration 80
  % inhibition Apo pol 5': 47%
DRC-2, 40', concentration 2.5
  % inhibition Apol 40': 1.36%
DRC-2, 40', concentration 5
  % inhibition Apol 40': 3.64%
DRC-2, 40', concentration 10
  % inhibition Apol 40': 19%
DRC-2, 40', concentration 20
  % inhibition Apol 40': 29%
DRC-2, 40', concentration 40
  % inhibition Apol 40': 49%
DRC-2, 40', concentration 80
  % inhibition Apol 40': 61%
DRC-2, 90', concentration 2.5
  % inhibition ApPOL 90': 0.778%
DRC-2, 90', concentration 5
  % inhibition ApPOL 90': 6%
DRC-2, 90', concentration 10
  % inhibition ApPOL 90': 20%
DRC-2, 90', concentration 20
  % inhibition ApPOL 90': 32%
DRC-2, 90', concentration 40
  % inhibition ApPOL 90': 53%
DRC-2, 90', concentration 80
  % inhibition ApPOL 90': 65%
DRC-2, 180', concentration 2.5
  % inhibition apPOL 180': -1.88%
DRC-2, 180', concentration 5
  % inhibition apPOL 180': 5%
DRC-2, 180', concentration 10
  % inhibition apPOL 180': 21%
DRC-2, 180', concentration 20
  % inhibition apPOL 180': 34%
DRC-2, 180', concentration 40
  % inhibition apPOL 180': 56%
DRC-2, 180', concentration 80
  % inhibition apPOL 180': 68%
Primary screen value by plate and well
  DNA Pol: 27
[1]
  DNA Pol: 27

## Cc1cc(C)c2c(O)nc(SCC(=O)c3ccc(O)c(O)c3)nc2n1 [Molecule 88, Cc1cc(C)c2c(n1)nc(nc2O)SCC(=O)c1ccc(c(c1)O)O]
DRC-1, concentration 2.5
  % inhibition Apo pol 10': 66.1048%
DRC-1, concentration 5
  % inhibition Apo pol 10': 84.19%
DRC-1, concentration 10
  % inhibition Apo pol 10': 90.4679%
DRC-1, concentration 20
  % inhibition Apo pol 10': 96.9488%
DRC-1, concentration 40
  % inhibition Apo pol 10': 98.8856%
DRC-1, concentration 80
  % inhibition Apo pol 10': 98.1462%
DRC-1, 90', concentration 2.5
  % inhibition Apol 90': 42.8406%
DRC-1, 90', concentration 5
  % inhibition Apol 90': 64.0677%
DRC-1, 90', concentration 10
  % inhibition Apol 90': 76.3822%
DRC-1, 90', concentration 20
  % inhibition Apol 90': 90.5503%
DRC-1, 90', concentration 40
  % inhibition Apol 90': 93.4235%
DRC-1, 90', concentration 80
  % inhibition Apol 90': 90.6466%
DRC-1, 180', concentration 2.5
  % inhibition apPOL 180': 28.0012%
DRC-1, 180', concentration 5
  % inhibition apPOL 180': 48.1017%
DRC-1, 180', concentration 10
  % inhibition apPOL 180': 62.9235%
DRC-1, 180', concentration 20
  % inhibition apPOL 180': 84.8942%
DRC-1, 180', concentration 40
  % inhibition apPOL 180': 86.2556%
DRC-1, 180', concentration 80
  % inhibition apPOL 180': 82.2791%
[2]
  % inhibition Apol 40': 63%
[3]
  % inhibition Apol 40': 71%
DRC-2, 40', concentration 80 (unit not given)
  % inhibition Apol 40': 54%
[4]
  % inhibition ApPOL 90': 63%
DRC-2, 90', concentration 20 (unit not given)
  % inhibition ApPOL 90': 71%
DRC-2, 90', concentration 40 (unit not given)
  % inhibition ApPOL 90': 71%
[5]
  % inhibition apPOL 180': 54%
DRC-2, 180', concentration 20 (unit not given)
  % inhibition apPOL 180': 63%
DRC-2, 180', concentration 40 (unit not given)
  % inhibition apPOL 180': 63%
DRC-2, concentration 2.5
  % inhibition Apo pol 5': 35%
DRC-2, concentration 5
  % inhibition Apo pol 5': 43%
DRC-2, concentration 10
  % inhibition Apo pol 5': 50%
DRC-2, concentration 20
  % inhibition Apo pol 5': 55%
DRC-2, concentration 40
  % inhibition Apo pol 5': 58%
DRC-2, concentration 80
  % inhibition Apo pol 5': 31%
DRC-2, 40', concentration 2.5
  % inhibition Apol 40': 32%
DRC-2, 40', concentration 5
  % inhibition Apol 40': 45%
DRC-2, 40', concentration 10
  % inhibition Apol 40': 63%
DRC-2, 40', concentration 20
  % inhibition Apol 40': 71%
DRC-2, 40', concentration 40
  % inhibition Apol 40': 72%
DRC-2, 40', concentration 80
  % inhibition Apol 40': 54%
DRC-2, 90', concentration 2.5
  % inhibition ApPOL 90': 28%
DRC-2, 90', concentration 5
  % inhibition ApPOL 90': 42%
DRC-2, 90', concentration 10
  % inhibition ApPOL 90': 63%
DRC-2, 90', concentration 20
  % inhibition ApPOL 90': 71%
DRC-2, 90', concentration 40
  % inhibition ApPOL 90': 71%
DRC-2, 90', concentration 80
  % inhibition ApPOL 90': 56%
DRC-2, 180', concentration 2.5
  % inhibition apPOL 180': 18%
DRC-2, 180', concentration 5
  % inhibition apPOL 180': 27%
DRC-2, 180', concentration 10
  % inhibition apPOL 180': 54%
DRC-2, 180', concentration 20
  % inhibition apPOL 180': 63%
DRC-2, 180', concentration 40
  % inhibition apPOL 180': 63%
DRC-2, 180', concentration 80
  % inhibition apPOL 180': 53%
[1]
  DNA Pol: 85
[6]
  DNA Pol: 85

## COc1ccc(NC(=O)Cn2nc3c(cc2=O)CCC3)cc1Cl [Molecule 4]
  IC50: 5.29 µM

## Cc1cccc2c(C(=O)NC(C)C)cc(N(C)C)nc12 [Molecule 47]
  IC50: 15.9 µM

## O=C(Cn1ccc2c(=O)[nH]ccc21)Nc1cccc(Cl)c1 [Molecule 23, O=C(Cn1ccc2c1cc[nH]c2=O)Nc1cccc(c1)Cl]
DRC-1, concentration 2.5
  % inhibition Apo pol 10': 1.228%
DRC-1, concentration 5
  % inhibition Apo pol 10': 14.8384%
DRC-1, concentration 10
  % inhibition Apo pol 10': 62.4441%
DRC-1, concentration 20
  % inhibition Apo pol 10': 81.0439%
DRC-1, concentration 40
  % inhibition Apo pol 10': 80.7703%
DRC-1, concentration 80
  % inhibition Apo pol 10': 68.5193%
DRC-1, 90', concentration 2.5
  % inhibition Apol 90': -3.118%
DRC-1, 90', concentration 5
  % inhibition Apol 90': 4.6922%
DRC-1, 90', concentration 10
  % inhibition Apol 90': 48.8063%
DRC-1, 90', concentration 20
  % inhibition Apol 90': 74.6886%
DRC-1, 90', concentration 40
  % inhibition Apol 90': 82.985%
DRC-1, 90', concentration 80
  % inhibition Apol 90': 79.3379%
DRC-1, 180', concentration 2.5
  % inhibition apPOL 180': -7.139%
DRC-1, 180', concentration 5
  % inhibition apPOL 180': -3.837%
DRC-1, 180', concentration 10
  % inhibition apPOL 180': 31.8886%
DRC-1, 180', concentration 20
  % inhibition apPOL 180': 62.9592%
DRC-1, 180', concentration 40
  % inhibition apPOL 180': 80.4785%
DRC-1, 180', concentration 80
  % inhibition apPOL 180': 82.7611%
[2]
  % inhibition Apol 40': 63%
[3]
  % inhibition Apol 40': 65%
[4]
  % inhibition ApPOL 90': 63%
DRC-2, 90', concentration 80 (unit not given)
  % inhibition ApPOL 90': 57%
[5]
  % inhibition apPOL 180': 57%
DRC-2, 180', concentration 80 (unit not given)
  % inhibition apPOL 180': 65%
DRC-2, concentration 2.5
  % inhibition Apo pol 5': 7%
DRC-2, concentration 5
  % inhibition Apo pol 5': 28%
DRC-2, concentration 10
  % inhibition Apo pol 5': 46%
DRC-2, concentration 20
  % inhibition Apo pol 5': 43%
DRC-2, concentration 40
  % inhibition Apo pol 5': 34%
DRC-2, concentration 80
  % inhibition Apo pol 5': 19%
DRC-2, 40', concentration 2.5
  % inhibition Apol 40': 6%
DRC-2, 40', concentration 5
  % inhibition Apol 40': 35%
DRC-2, 40', concentration 10
  % inhibition Apol 40': 63%
DRC-2, 40', concentration 20
  % inhibition Apol 40': 65%
DRC-2, 40', concentration 40
  % inhibition Apol 40': 60%
DRC-2, 40', concentration 80
  % inhibition Apol 40': 49%
DRC-2, 90', concentration 2.5
  % inhibition ApPOL 90': 3%
DRC-2, 90', concentration 5
  % inhibition ApPOL 90': 31%
DRC-2, 90', concentration 10
  % inhibition ApPOL 90': 63%
DRC-2, 90', concentration 20
  % inhibition ApPOL 90': 69%
DRC-2, 90', concentration 40
  % inhibition ApPOL 90': 67%
DRC-2, 90', concentration 80
  % inhibition ApPOL 90': 57%
DRC-2, 180', concentration 2.5
  % inhibition apPOL 180': -5%
DRC-2, 180', concentration 5
  % inhibition apPOL 180': 18%
DRC-2, 180', concentration 10
  % inhibition apPOL 180': 57%
DRC-2, 180', concentration 20
  % inhibition apPOL 180': 71%
DRC-2, 180', concentration 40
  % inhibition apPOL 180': 72%
DRC-2, 180', concentration 80
  % inhibition apPOL 180': 65%
[1]
  DNA Pol: 79
[6]
  DNA Pol: 79
